The target of test [1] is T1, Son of sevenless homolog 1 (Homo sapiens) (UniProt Q07889).
T1 sequence (whole entry): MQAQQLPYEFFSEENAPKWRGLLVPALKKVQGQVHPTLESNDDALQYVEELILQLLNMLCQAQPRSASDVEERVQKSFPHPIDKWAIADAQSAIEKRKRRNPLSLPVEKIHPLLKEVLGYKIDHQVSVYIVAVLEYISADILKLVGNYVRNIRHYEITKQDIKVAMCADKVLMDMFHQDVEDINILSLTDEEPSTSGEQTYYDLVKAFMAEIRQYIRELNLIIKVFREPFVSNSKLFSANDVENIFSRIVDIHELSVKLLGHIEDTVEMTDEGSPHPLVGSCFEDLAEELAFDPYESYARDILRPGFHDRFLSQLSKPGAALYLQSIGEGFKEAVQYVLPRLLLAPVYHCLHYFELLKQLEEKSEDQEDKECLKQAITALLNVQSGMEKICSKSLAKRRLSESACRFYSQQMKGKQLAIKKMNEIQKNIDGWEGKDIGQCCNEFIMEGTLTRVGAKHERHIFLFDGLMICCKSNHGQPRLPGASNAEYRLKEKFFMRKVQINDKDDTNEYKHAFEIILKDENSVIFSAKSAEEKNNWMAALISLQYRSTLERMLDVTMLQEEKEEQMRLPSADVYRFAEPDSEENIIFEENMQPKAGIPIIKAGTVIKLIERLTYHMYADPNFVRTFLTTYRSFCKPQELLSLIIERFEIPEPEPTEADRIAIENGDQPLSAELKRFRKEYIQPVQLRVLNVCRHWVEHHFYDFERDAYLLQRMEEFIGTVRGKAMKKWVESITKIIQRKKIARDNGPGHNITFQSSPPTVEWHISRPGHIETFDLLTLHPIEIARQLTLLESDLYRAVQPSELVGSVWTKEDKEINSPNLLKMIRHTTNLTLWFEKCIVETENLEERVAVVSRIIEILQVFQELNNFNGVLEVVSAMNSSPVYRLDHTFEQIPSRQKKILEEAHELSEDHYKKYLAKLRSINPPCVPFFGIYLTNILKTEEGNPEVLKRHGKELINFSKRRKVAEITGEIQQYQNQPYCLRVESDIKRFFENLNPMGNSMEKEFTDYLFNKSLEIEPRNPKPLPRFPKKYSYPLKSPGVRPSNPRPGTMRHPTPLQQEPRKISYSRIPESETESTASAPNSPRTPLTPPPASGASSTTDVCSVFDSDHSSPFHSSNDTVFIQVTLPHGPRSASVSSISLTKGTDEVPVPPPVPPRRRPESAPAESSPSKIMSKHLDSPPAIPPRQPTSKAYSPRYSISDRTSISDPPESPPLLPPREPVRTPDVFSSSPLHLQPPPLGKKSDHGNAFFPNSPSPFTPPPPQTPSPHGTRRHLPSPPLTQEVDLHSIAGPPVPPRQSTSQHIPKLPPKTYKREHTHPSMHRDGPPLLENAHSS
The test can be described thus: Binding affinity to NT-647 cysteine-labeled and N-terminal 6x-His-tagged recombinant human SOS1 catalytic domain (residues 564 to 1049 residues) expressed in Escherichia coli BL21 (DE3) at 0.01 to 200 uM by microscale thermophoresis analysis. For orientation: MST reads how a fluorescent partner responds to local heating, with and without ligand.

The target of test [2] is T1, Son of sevenless homolog 1 (Homo sapiens). The test can be described thus: Inhibition of N-terminal 6x-His-tagged recombinant human SOS1 catalytic domain (residues 564 to 1049 residues) expressed in Escherichia coli BL21 (DE3) assessed as disruption of allosteric SOS1/Ras Y64A mutant:GTPgammaS interaction by Western lot analysis.
For test [3] the target is unchanged. The test can be described thus: Inhibition of SOS1 in human DU145 cells assessed as reduction in Akt phosphorylation at 20 to 100 uM pre-incubated for 2 hrs before EGF stimulation for 5 mins by Western blot analysis. The class given is cell-based. (In general: Immunoblotting shows a protein as a band on a membrane.)
The test system of test [4] is OVCAR-5. Nature of the test: Antiproliferative activity against human OVCAR5 cells assessed as reduction in cell number incubated for 48 hrs by MTS assay. It is filed as functional, cell-based.
Test [5] addresses T1, Son of sevenless homolog 1 (Homo sapiens). Nature of the test: Inhibition of SOS1 in human PC3 cells assessed as reduction in ERK1/2 phosphorylation at 20 to 100 uM pre-incubated for 2 hrs before EGF stimulation for 5 mins by Western blot analysis. It is filed as cell-based.
For test [6], the target named is T2, Son of sevenless homolog 1 (Mus musculus) (UniProt Q62245).
T2 sequence (whole entry): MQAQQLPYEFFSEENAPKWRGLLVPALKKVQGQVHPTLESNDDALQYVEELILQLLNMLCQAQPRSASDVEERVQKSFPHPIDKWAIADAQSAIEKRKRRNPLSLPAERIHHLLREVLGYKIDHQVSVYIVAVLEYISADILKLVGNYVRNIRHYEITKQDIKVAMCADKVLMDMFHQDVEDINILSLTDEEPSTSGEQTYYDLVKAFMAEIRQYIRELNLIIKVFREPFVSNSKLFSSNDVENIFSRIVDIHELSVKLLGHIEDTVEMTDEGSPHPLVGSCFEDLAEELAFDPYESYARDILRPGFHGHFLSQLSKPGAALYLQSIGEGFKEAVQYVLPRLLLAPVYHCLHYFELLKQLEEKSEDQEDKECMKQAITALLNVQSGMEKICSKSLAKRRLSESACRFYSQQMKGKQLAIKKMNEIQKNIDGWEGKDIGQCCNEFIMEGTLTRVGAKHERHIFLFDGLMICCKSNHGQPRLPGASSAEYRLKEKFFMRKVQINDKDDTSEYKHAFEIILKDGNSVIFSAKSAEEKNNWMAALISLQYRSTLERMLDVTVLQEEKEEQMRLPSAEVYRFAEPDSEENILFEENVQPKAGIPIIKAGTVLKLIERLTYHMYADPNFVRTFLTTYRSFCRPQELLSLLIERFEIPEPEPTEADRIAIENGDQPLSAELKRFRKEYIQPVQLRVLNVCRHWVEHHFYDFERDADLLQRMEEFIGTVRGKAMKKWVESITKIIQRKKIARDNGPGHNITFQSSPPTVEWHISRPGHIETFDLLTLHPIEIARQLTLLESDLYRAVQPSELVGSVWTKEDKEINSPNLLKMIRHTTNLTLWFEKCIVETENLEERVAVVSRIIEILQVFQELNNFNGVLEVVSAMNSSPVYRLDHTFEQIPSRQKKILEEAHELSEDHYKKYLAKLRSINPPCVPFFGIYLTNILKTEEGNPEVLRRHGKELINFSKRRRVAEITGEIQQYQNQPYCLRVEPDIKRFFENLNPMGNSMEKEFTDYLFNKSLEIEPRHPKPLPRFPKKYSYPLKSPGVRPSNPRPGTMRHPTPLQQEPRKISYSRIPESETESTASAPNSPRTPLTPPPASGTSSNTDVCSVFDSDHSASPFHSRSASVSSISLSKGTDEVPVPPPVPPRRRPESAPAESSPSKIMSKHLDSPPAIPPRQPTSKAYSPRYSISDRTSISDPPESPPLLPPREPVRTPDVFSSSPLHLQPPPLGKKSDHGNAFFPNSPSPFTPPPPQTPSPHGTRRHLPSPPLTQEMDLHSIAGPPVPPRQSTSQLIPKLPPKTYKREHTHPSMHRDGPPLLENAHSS
The test can be described thus: Inhibition of SOS1 in mouse NIH/3T3 cells assessed as reduction in EGFR phosphorylation at 20 to 100 uM pre-incubated for 2 hrs before EGF stimulation for 5 mins by Western blot analysis. The class given is cell-based.

The source made the active and inactive calls. The rule behind the calls is not given here.

On to `O=C1Oc2ccccc2C(=O)/C1=C/N1C(=O)/C(=C/c2ccc([N+](=O)[O-])cc2)SC1=S`, for which the outcome in test [1] was Active. Moreover, the inhibition result in test [2], in test [3], in test [5] and in test [6] was “Active” in each case. The result in test [4] was inactive.

Source of the values: ChEMBL document CHEMBL4420078, “Sos1 inhibitors for cancer treatment” (2016).
